Data published in the supplement of paper PMC10627819.

What was measured:
Assay in all cases: fitness (endpoint OD595 vs no drug) (fraction); higher = more growth
S. aureus Newman = system: S. aureus Newman
Summary of the method: (§1)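 Fitness compares growth at the stationary-phase transition with the robust mean of no-drug control wells, as a ratio of optical densities. The ratio is capped at 1. Wells of 384-well plates held 30 µl, or 55 µl for S. pneumoniae, inoculated at OD595 0.01. Readings at OD595 every 30 min for 14 h at 37 °C were corrected against the first reading.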

S. pneumoniae D39V = system: S. pneumoniae D39V
Summary of the method: as §1

B. subtilis 168 = system: B. subtilis 168
Summary of the method: as §1
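Note: OD595 on entry to stationary phase over no-drug wells; at most 1.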

CC[C@H]1OC(=O)[C@H](C)[C@@H](O[C@H]2C[C@@](C)(OC)[C@@H](O)[C@H](C)O2)[C@H](C)[C@@H](O[C@@H]2O[C@H](C)C[C@H](N(C)C)[C@H]2O)[C@](C)(O)C[C@@H](C)CN(C)[C@H](C)[C@@H](O)[C@]1(C)O [Azithromycin] + CC1(C)S[C@@H]2[C@H](NC(=O)Cc3ccccc3)C(=O)N2[C@H]1C(=O)O [Penicillin G]
fitness, S. aureus Newman
Conditions | first compound 0.125 µg/mL | first compound 0.25 µg/mL | first compound 0.5 µg/mL
partner 0.0195 µg/mL | 0.844 | 0.729 | 0.513
partner 0.039 µg/mL | 0.822 | 0.77 | 0.452
partner 0.078 µg/mL | 0.775 | 0.741 | 0.411

CC1=C(C(=O)O)N2C(=O)[C@@H](NC(=O)[C@H](N)c3ccccc3)[C@H]2SC1 [Cephalexin] + CC1(C)S[C@@H]2[C@H](NC(=O)Cc3ccccc3)C(=O)N2[C@H]1C(=O)O [Penicillin G]
fitness, S. aureus Newman
Conditions | first compound 0.25 µg/mL | first compound 0.5 µg/mL | first compound 1 µg/mL
partner 0.0195 µg/mL | 0.891 | 0.785 | 0.811
partner 0.039 µg/mL | 0.927 | 0.937 | 0.908
partner 0.078 µg/mL | 0.875 | 0.897 | 0.944

O=C(O)[C@H]1/C(=C/CO)O[C@@H]2CC(=O)N21 [Clavulanic acid] + C/C(=C\C(=O)OCCCCCCCCC(=O)O)C[C@@H]1OC[C@H](C[C@@H]2O[C@H]2[C@@H](C)[C@H](C)O)[C@@H](O)[C@H]1O [Pseudomonic acid]
fitness, S. pneumoniae D39V
Conditions | first compound 0.5 µg/mL | first compound 1 µg/mL | first compound 2 µg/mL
partner 0.03 µg/mL | 0.921 | 0.906 | 0.832
partner 0.06 µg/mL | 0.769 | 0.803 | 0.656
partner 0.12 µg/mL | 0.408 | 0.519 | 0.277

O=C(O)[C@H]1/C(=C/CO)O[C@@H]2CC(=O)N21 [Clavulanic acid] + CC1(C)S[C@@H]2[C@H](NC(=O)Cc3ccccc3)C(=O)N2[C@H]1C(=O)O [Penicillin G]
fitness, S. aureus Newman, one replicate
Conditions | first compound 0.03125 µg/mL | first compound 0.0625 µg/mL | first compound 0.125 µg/mL
partner 0.0195 µg/mL | 0.934 | 0.859 | 0.796
partner 0.039 µg/mL | 0.851 | 0.819 | 0.712
partner 0.078 µg/mL | 0.846 | 0.694 | 0.613

O=C(O)[C@H]1/C(=C/CO)O[C@@H]2CC(=O)N21 [Clavulanic acid] + CC(=O)NC[C@H]1CN(c2ccc(N3CCOCC3)c(F)c2)C(=O)O1 [Linezolid]
fitness
Conditions | partner 0.105 µg/mL | partner 0.125 µg/mL | partner 0.2 µg/mL | partner 0.21 µg/mL | partner 0.25 µg/mL | partner 0.4 µg/mL | partner 0.42 µg/mL | partner 0.5 µg/mL | partner 0.8 µg/mL
B. subtilis 168, first compound 1.5 µg/mL | – | 0.659 | – | – | 0.247 | – | – | 0.0633 | –
B. subtilis 168, first compound 3 µg/mL | – | 0.597 | – | – | 0.184 | – | – | 0.025 | –
B. subtilis 168, first compound 6 µg/mL | – | 0.585 | – | – | 0.151 | – | – | 0.0316 | –
S. pneumoniae D39V, first compound 0.5 µg/mL | 0.808 | – | 0.474 | 0.658 | – | 0.261 | 0.453 | – | 0.075
S. pneumoniae D39V, first compound 1 µg/mL | 0.801 | – | 0.531 | 0.67 | – | 0.363 | 0.443 | – | 0.226
S. pneumoniae D39V, first compound 2 µg/mL | 0.749 | – | 0.392 | 0.567 | – | 0.22 | 0.238 | – | 0.102

B. subtilis 168, partner 0.0625 µg/mL, one replicate
Conditions | fitness
first compound 1.5 µg/mL | 0.85
first compound 3 µg/mL | 0.773
first compound 6 µg/mL | 0.789

O=C(O)[C@H]1/C(=C/CO)O[C@@H]2CC(=O)N21 [Clavulanic acid] + CCC(C)C1C(=O)NC(=C)C(=O)NC(C(=O)NC(CSCC(C(=O)N1)NC(=O)/C(=C/C)/NC(=O)C(C(C)CC)N)C(=O)NC2C(SCC(NC(=O)CNC(=O)C3CCCN3C2=O)C(=O)NC(CCCCN)C(=O)NC4C(SCC(NC(=O)CNC(=O)C(NC(=O)C(NC(=O)C(NC(=O)CNC4=O)C)CC(C)C)CCSC)C(=O)NC(CC(=O)N)C(=O)NC(CCSC)C(=O)NC(CCCCN)C(=O)NC5C(SCC6C(=O)NC(C(=O)NC(CSC(C(C(=O)N6)NC(=O)C(NC5=O)C)C)C(=O)NC(CO)C(=O)NC(C(C)CC)C(=O)NC(CC7=CN=CN7)C(=O)NC(C(C)C)C(=O)NC(=C)C(=O)NC(CCCCN)C(=O)O)CC8=CN=CN8)C)C)C)CC(C)C [Nisin]
main component drawn
Conditions | fitness
B. subtilis 168, first compound 1.5 µg/mL, partner 0.5 µg/mL | 0.814
B. subtilis 168, first compound 1.5 µg/mL, partner 1 µg/mL | 0.775
B. subtilis 168, first compound 1.5 µg/mL, partner 2 µg/mL | 0.541
B. subtilis 168, first compound 3 µg/mL, partner 0.5 µg/mL | 0.797
B. subtilis 168, first compound 3 µg/mL, partner 1 µg/mL | 0.769
B. subtilis 168, first compound 3 µg/mL, partner 2 µg/mL | 0.595
B. subtilis 168, first compound 6 µg/mL, partner 0.5 µg/mL | 0.738
B. subtilis 168, first compound 6 µg/mL, partner 1 µg/mL | 0.703
B. subtilis 168, first compound 6 µg/mL, partner 2 µg/mL | 0.485
S. pneumoniae D39V, first compound 0.5 µg/mL, partner 0.4275 µg/mL | 0.973
S. pneumoniae D39V, first compound 0.5 µg/mL, partner 1.6 µg/mL | 0.0053
S. pneumoniae D39V, first compound 0.5 µg/mL, partner 1.71 µg/mL | 0.0946
S. pneumoniae D39V, first compound 0.5 µg/mL, partner 3.2 µg/mL | 0.0291
S. pneumoniae D39V, first compound 0.5 µg/mL, partner 6.4 µg/mL | 0.0063
S. pneumoniae D39V, first compound 1 µg/mL, partner 0.4275 µg/mL | 0.982
S. pneumoniae D39V, first compound 1 µg/mL, partner 1.6 µg/mL | 0.16
S. pneumoniae D39V, first compound 1 µg/mL, partner 1.71 µg/mL | 0.0481
S. pneumoniae D39V, first compound 1 µg/mL, partner 3.2 µg/mL | 0.154
S. pneumoniae D39V, first compound 1 µg/mL, partner 6.4 µg/mL | 0.16
S. pneumoniae D39V, first compound 2 µg/mL, partner 0.4275 µg/mL | 0.929
S. pneumoniae D39V, first compound 2 µg/mL, partner 0.855 µg/mL | 0.617
S. pneumoniae D39V, first compound 2 µg/mL, partner 1.6 µg/mL | 0.0042
S. pneumoniae D39V, first compound 2 µg/mL, partner 1.71 µg/mL | 0.0736
S. pneumoniae D39V, first compound 2 µg/mL, partner 3.2 µg/mL | 0.0076
S. pneumoniae D39V, first compound 2 µg/mL, partner 6.4 µg/mL | 0.0001

fitness, B. subtilis 168, one replicate, main component drawn
Conditions | partner 1.25 µg/mL | partner 1.6 µg/mL | partner 2.5 µg/mL | partner 3.2 µg/mL | partner 4 µg/mL | partner 5 µg/mL | partner 6.4 µg/mL | partner 8 µg/mL | partner 16 µg/mL
first compound 1.5 µg/mL | 0.802 | 0.697 | 0.537 | 0.0178 | 0.0192 | 0.0574 | 0.0673 | 0.0099 | 0.0067
first compound 3 µg/mL | 0.765 | 0.733 | 0.48 | 0.0108 | 0.178 | 0.0615 | 0.0551 | 0.0036 | 0.0134
first compound 6 µg/mL | 0.57 | 0.67 | 0.182 | 0.0221 | 0.117 | 0.0792 | 0.0542 | 0.0002 | 0
